For the test, the target named is T1, Fusarium graminearum myosin I (FgMyoI) (Fusarium graminearum, UniProt I1RCT2).
T1 construct: gene FGRAMPH1_01T03465
Briefly: biochemical.

Structures are written as SMILES.

For orientation: IC50 means the concentration that gives 50% inhibition. A high value points to a need for much substance.

For `CCOC(=O)/C(C#N)=C(\N)c1ccccc1` [phenamacril], the IC50 stood at 360 nM.

The values above are taken from PMC7100991 (PLoS Pathogens, 2020).
